Results on 2 compounds are retold here after patent US12187688B2, “Crystal form of tetramethylpyrazine nitrone, preparation method and use thereof” (GUANGZHOU MAGPIE PHARMACEUTICALS CO., LTD., priority 2019, dated 2025).

Values joined by “and” are separate entries in the source; they are usually repeats but may differ in a detail not shown here. Identical values can stand only once. Like-named read-outs stand apart in the source and are kept apart here. Some results are limits rather than exact numbers.

Series [1] is described as follows: distribution in tissues after intravenous administration to SD rats. It counts as in vivo. The conditions noted are these: 30 mg/kg i.v. As to the method: SD rats were given the crystal form A of TBN at a dose of 30 mg/kg by intravenous injection and the distribution of the crystal form A of TBN in various tissues was investigated.
Series [2] can be described thus: in vitro cell experiments (effective protection concentration). It counts as cell-based.
Series [3] can be described thus: pharmacokinetic study in the cerebrospinal fluid of cynomolgus monkey. The class given is in vivo. Here is the method: The pharmacodynamic study in cynomolgus monkey animal model of cerebral stroke and also the pharmacokinetic study of the crystal form A of TBN in the cerebrospinal fluid of cynomolgus monkey were carried out. 10 min, 30 min, 60 min, and 120 min after the second administration (30 mg/kg, 6 hrs after the first intravenous administration of 30 mg/kg), 0.5 ml of cerebrospinal fluid was collected for pharmacokinetic test.

Test in series [4]: as above
The conditions noted are these: plasma, iv, 30 mg/kg, 10 min after the second administration, 30 mg/kg i.v., read-out: concentration of the drug in plasma. The class given is in vivo.

Series [5] in a line: Test of stability against cold/heat treatment. It counts as physicochemical. As to the method: (4) The crystal form A was cooled to −55° C., and then heated to 25° C.
(5) The crystal form A was heated to 110° C. (before the decomposition point), and then cooled to 25° C. to obtain a yellow oily liquid.
(6) The TBN dihydrate was heated to 110° C. (before the decomposition point), and then cooled to 25° C. to obtain a yellow oily liquid.

Series [6] in a line: Solubility in solvents. It counts as physicochemical.
Series [7] is described as follows: Test of stability against mechanical treatment (grinding). The class given is physicochemical. The conditions noted are these: ground for 10 min. As to the method: (2) The crystal form A of TBN and the TBN dihydrate were ground for 10 min receptively, and the treated samples were analyzed by XRPD.
Series [8] is described as follows: Tableting test. The class given is physicochemical. Particulars: 2 tons for 2 min. As to the method:
(3) The crystal form A and the TBN dihydrate were tableted under a pressure of 2 tons for 2 min. The tablets thus obtained were analyzed by XRPD.

Series [9] can be described thus: Test of influence of acceleration. The class given is physicochemical.
Series [10] can be described thus: Polymorph transformation test of suspension. The class given is physicochemical. The conditions noted are these: petroleum ether, room temperature, 7 days. Here is the method:
(1) The crystal form A of TBN was beaten in petroleum ether (1.0 mL) at room temperature for 7 days, and then the suspension was centrifuged, and the solid sample was collected for characterization by XRPD.

On to `Cc1nc(C)c(/C=[N+](\[O-])C(C)(C)C)nc1C` [TBN, (Z)-2-methyl-N-((3,5,6-trimethylpyrazin-2-yl)methylene)propan-2-amine oxide], for which the “accumulation in the detected tissues” value in series [1] is “does not tend to accumulate”. Besides, in [1], the “time to clearance from the tissues and plasma” value was at most 24 h. Moreover, the “concentration in the brain tissue relative to plasma concentration” value in series [1] (0.25 hrs after administration) is recorded as 0.6-0.7 time the plasma concentration; in [1] (after 4 hrs), 0.8-1.1 times the plasma concentration. Also, in series [1] (at 24 hrs), the “clearance from brain tissue” value was “completely cleared”. Also, the tissue distribution result in series [1] (female and male) is “rapid and widespread distribution”. This compound registered an effective protection concentration in series [2] of 30 µM. In addition, the “Drug concentration in cerebrospinal fluid” value in series [3] (10 min after second intravenous 30 mg/kg dose, individual animals, 30 mg/kg) was 33700 ng/mL and 34300 ng/mL; in [3] (30 min after second intravenous 30 mg/kg dose, individual animals, 30 mg/kg), 32200 ng/mL and 25100 ng/mL; in [3] (60 min after second intravenous 30 mg/kg dose, individual animals, 30 mg/kg) it was 25300 ng/mL and 20000 ng/mL; in series [3] (120 min after second intravenous 30 mg/kg dose, individual animals, 30 mg/kg) it was 16500 ng/mL and 14300 ng/mL and 7800 ng/mL. Besides, the concentration at 10 min in series [3] (cerebrospinal fluid, iv, 30 mg/kg, 10 min after second intravenous 30 mg/kg dose, individual animals, read-out: Drug concentration in cerebrospinal fluid) is 48800 ng/mL; in [3] (cerebrospinal fluid, iv, 30 mg/kg, 10 min after the second administration, 30 mg/kg i.v., read-out: concentration of TBN in the cerebrospinal fluid), 176 µM; in series [4], 195 µM. Moreover, in series [3] (cerebrospinal fluid, iv, 30 mg/kg, 30 min after second intravenous 30 mg/kg dose, individual animals, read-out: Drug concentration in cerebrospinal fluid), the concentration at 30 min stood at 41100 ng/mL. For the same compound, the concentration at 60 min in [3] (cerebrospinal fluid, iv, 30 mg/kg, 60 min after second intravenous 30 mg/kg dose, individual animals, read-out: Drug concentration in cerebrospinal fluid) is 27500 ng/mL.
Consider `Cc1nc(C)c(/C=[N+](\[O-])C(C)(C)C)nc1C` [crystal form A of TBN, (Z)-2-methyl-N-((3,5,6-trimethylpyrazin-2-yl)methylene)propan-2-amine oxide], for which the “polymorph transformation after cooling treatment” value in series [5] (cooled to −55° C., then heated to 25° C.) is “does not undergo polymorph transformation”. Besides, in [5] (heated to 110° C., cooled to 25° C., solid precipitated after stirring), the “crystal form by XRPD after thermal treatment” value was “characterized by XRPD as crystal form A”. Also, the solubility entry is on record as “readily soluble” in [6] (most solvents (acetonitrile, methanol, ethanol, acetone, ethyl acetate)) and “very soluble” in [6] (water). The “crystal form (XRPD) after grinding” value in series [7] is on record as “no change”. The “polymorph transformation after tableting (XRPD)” value in series [8] was “do not undergo polymorph transformation”. Further, the blood-brain barrier penetration entry in [3] (30 mg/kg i.v.) is on record as “penetrate through the blood-brain barrier”. Also, the “crystal form by XRPD after acceleration” value in [9] (7 days at 40° C. and RH=75%) is given as “shows crystal form A”. The “stability in heat treatment, mechanical treatment and acceleration” value in [9] (acceleration (50° C., 75% RH)) was “stable”. Besides, the “crystal form by XRPD after suspension beating” value in series [10] is on record as “still crystal form A”.
